Read-outs that look alike come from different tables or passages of the source.
Experiments:
Format in all cases: cell-based
HCV genotype 1b replicon = test: microbe, parasite or virus in culture; conditions: read-out: HCV Replicon EC50
Protocol: Huh-7-derived cell line (Zluc) that harbors an HCV genotype 1b replicon and a luciferase reporter gene was grown in Dulbecco's Modified Eagle Medium (DMEM) supplemented with 10% fetal bovine serum, 2 mM GlutaMAX, 1% MEM nonessential amino acids, 100 IU/mL penicillin, 100 μg/mL streptomycin, and 0.5 mg/mL Geneticin® (G418). For dose response testing the cells were seeded in 96-well plates at 7.5×10^3 cells per well in a volume of 50 μL, and incubated at 37° C./5% CO2. Drug solutions were made up freshly in Huh-7 media as 2× stocks. Ten additional 5-fold dilutions were prepared from these stocks in DMEM without G418. At least three hours after Zluc cells were seeded, drug treatment was initiated by adding 50 μL of drug dilutions to the plates in duplicate. […] Cells were then incubated at 37° C./5% CO2. Alternatively compounds were tested at two concentrations (10 nM and 100 nM). […] For this, media was removed from the plates via gentle tapping. Fifty microliters of ONE-glo luciferase assay reagent was added to each well. […] The EC50 values were calculated from dose response curves from the resulting best-fit equations determined by Microsoft Excel and XLfit 4.1 software.

[1] = Cytotoxicity evaluation, CellTiter-Blue Cell Viability Assay; conditions: human, Zluc cells (Huh-7-derived cell line), read-out: HCV Replicon CC50
Protocol: (§1) For cytotoxicity evaluation, Zluc cells were treated with compound as described above, and cell viability was monitored using the CellTiter-Blue Cell Viability Assay (Promega) by adding 20 μL of the assay solution to each well. The plates were then incubated at 37° C./5% CO2 for at least 3 hours.

[2] = tested on: Zluc cells (Huh-7-derived cell line); test: as above; conditions: read-out: HCV Replicon CC50
Protocol: as §1

[3] = Zluc cells, HCV genotype 1b replicon, luciferase, 72 hours of incubation

SMILES	EC50 (HCV genotype 1b replicon; Hepatitis C virus, 72 h)	CC50 [1]	EC50 (HCV genotype 1b replicon; [3])	CC50 [2]
CCOc1nc(N)nc2c1ncn2[C@@H]1O[C@H](COP(=O)(N[C@@H](C)C(=O)OC(C)C)OC(C)OC(=O)SCC)[C@@H](O)[C@@]1(C)F (stereo partly drawn) [Compound 24]	< 0.1 µM	> 50 µM		
CCNC(=O)OCOP(=O)(N[C@H](C(=O)OCC)C(C)(C)C)OC[C@H]1O[C@@H](n2cnc3c(OCC)nc(N)nc32)[C@](C)(F)[C@@H]1O (single isomer, unassigned) [Compound 21]	1 to 10 µM	> 50 µM		
C[C@@]1(O)[C@H](O)[C@@H](COP(=O)(O)NCc2ccccc2)O[C@H]1n1cnc2c(=O)[nH]c(N)nc21 [Compound 1]	0.1 to 1 µM	> 50 µM		
CCOC(=O)OC(C)OP(=O)(N[C@@H](C)C(=O)OC(C)C)OC[C@H]1O[C@@H](n2cnc3c(OC)nc(N)nc32)[C@](C)(F)[C@@H]1O (single isomer, unassigned) [Compound 17]			< 0.1 µM	> 50 µM
CCNC(=O)OCOP(=O)(N[C@H](C(=O)OCC)C(C)(C)C)OC[C@H]1O[C@@H](n2cnc3c(OCC)nc(N)nc32)[C@](C)(F)[C@@H]1O (single isomer, unassigned) [Compound 22]	1 to 10 µM	> 50 µM		
CCOC(=O)OC(C)OP(=O)(N[C@@H](C)C(=O)OC(C)C)OC[C@H]1O[C@@H](n2cnc3c(OC)nc(N)nc32)[C@](C)(F)[C@@H]1O (single isomer, unassigned) [Compound 16]			< 0.1 µM	> 50 µM
COc1nc(N)nc2c1ncn2[C@@H]1O[C@H](COP(=O)(N[C@@H](CC(C)C)C(=O)OC(C)C)OCOC(=O)OC(C)C)[C@@H](O)[C@@]1(C)O (stereo partly drawn) [Compound 7]	< 0.1 µM	> 50 µM		
CC(C)(C)C(=O)OCOP(=O)(NCc1ccccc1)OC[C@H]1O[C@@H](n2cnc3c(=O)[nH]c(N)nc32)[C@](C)(O)[C@@H]1O (stereo partly drawn) [Compound 2]	< 0.1 µM	> 50 µM		
COc1nc(N)nc2c1ncn2[C@@H]1O[C@H](COP(=O)(NCc2ccccc2)OC(OC(=O)OC(C)C)C(C)C)[C@@H](O)[C@@]1(C)O (stereo partly drawn) [Compound 6]	< 0.1 µM	< 50 µM		
